Reference: US10513519B2, “Solid forms of (1S,4S)-4-(2-(((3S,4R)-3-fluorotetrahydro-2H-pyran-4-yl)amino)-8-((2,4,6-trichlorophenyl)amino)-9H-purin-9-yl)-1-methylcyclohexane-1-carboxamide and methods of their use” (Signal Pharmaceuticals, LLC, priority 2016, dated 2019)

Experiments:
[1] = Dynamic vapor sorption (hygroscopicity); type: physicochemical
Method: Dynamic vapor sorption (DVS) was measured using DVS advantage (Surface Measurement Systems Ltd). The samples were tested under isotherm (25° C.) at a targeted RH of 0 to 95% full cycle in step mode. For an isotherm test, the chamber temperature was maintained by a water bath at constant 25.0±1.0° C. The relative humidity in the sample chamber was generated by combining different flows of wet and dry nitrogen with variable flow rates. The analysis was performed in 10% RH increments. Sampling rate was 1 sec save data rate is 20 sec. The dm/dt (%) value was set at 0.001 with a dm/dt window of 5 min., a minimum stability duration time of 10 min, and a maximum stage time of 180 min. The sample's equilibrium weight corresponding to each RH was recorded. A sorption isotherm was obtained by plotting equilibrium moisture content versus RH.
Hygroscopicity was determined on a Surface Measurement Systems DVS. A sample size of 5-20 mg was loaded into the DVS instrument sample pan and the sample was analyzed on a DVS automated sorption analyzer at room temperature. The relative humidity was increased from 0% to 90% RH at 10% RH step, then decreased in a similar manner to accomplish a full adsorption/desorption cycle.

pKa = type: physicochemical
LOX-IMVI xenograft = assay: LOX-IMVI subcutaneous melanoma xenograft model; type: in vivo, SCID mice
Method: For xenograft model studies human cancer cell lines were injected into SCID (severe combined immunodeficiency) mice. Cancer cell lines were propagated in culture in vitro. Tumor bearing animals were generated by injecting precisely determined numbers of cells into mice. Following inoculation of animals, the tumors were allowed to grow to a certain size prior to randomization. The mice bearing xenograft tumors ranging between pre-determined sizes were pooled together and randomized into various treatment groups. A typical efficacy study design involved administering one or more compounds at various dose levels to tumor-bearing mice. Additionally, reference chemotherapeutic agents (positive control) and negative controls were similarly administered and maintained. Tumor measurements and body weights were taken over the course of the study.
Mice were anesthetized with inhaled isoflurane and then inoculated with LOX-IMVI tumor cells subcutaneously above the right hind leg with 0.1 mL of a single cell suspension in PBS using a sterile 1 mL syringe fitted with a 26-gauge needle. Following inoculation of the animals, tumors were allowed to grow to approximately 75-125 mm^3 or in some cases 250-400 mm^3 prior to randomization of the mice. The tumor of each animal was measured and animals with tumors in the appropriate range were included in the study. Animals from the study pool were then distributed randomly into various cages and the cages were randomly assigned to vehicle, positive control, or test article groups. All of the mice were tagged with metal ear tags on the right ear. A typical group consisted of 8-10 animals. For a typical xenograft study, SCID mice bearing tumors were randomized and dosed with compounds ranging from, for example, 100 mg/kg to 0.1 mg/kg with different dose scheduling, including, but not limited to, qd, q2d, q3d, q5d, q7d and bid. The mice were dosed for 1-4 weeks. Tumors were measured twice a week using calipers and tumor volumes were calculated using the formula of W^2×L/2.
The purpose of this study was to confirm the efficacy of Compound 1 in the LOX-IMVI melanoma xenograft model.
In a separate experiment, Compound 1 was administered orally, QD for 8 days at 0.2, 1, 5, 10, and 15 mg/kg.

[2] = tested on: DUSP4, DUSP6, SPRY2, c-Myc, cyclin D1, Axin2, CTGF, AREG mRNA in Colo 205 (BRAF V600E); assay: Quantitative PCR (Cell-To-CT kit) in Colo 205; type: cell-based
Method: The ability of Compound 1 to inhibit MAPK signaling was assessed by determining the DUSP4 and DUSP6 protein expression. Colon cancer cell line Colo 205 (BRAF V600E) cultures were treated with DMSO or increasing concentrations of Compound 1 for 2, 8 or 24 h. Proteins were extracted from treated cells and analyzed by Western blot using antibodies against DUSP4, DUSP6, cyclin D1, c-Myc, YAP or β-actin. RNAs were extracted using Cell-To-CT kit and quantitative PCR was performed with probes specific for DUSP4, DUSP6, SPRY2, c-Myc and cyclin D1. Specific probes for β-actin were used for normalization.
Cellular activity against beta-catenin and YAP target genes by Compound 1 was evaluated. Colon cancer cell line Colo 205 (BRAF V600E) cultures were treated with DMSO or increasing concentrations of Compound 1 for 2, 8 or 24 h. RNAs were extracted using Cell-To-CT kit and quantitative PCR was performed with probes specific for Axin2, CTGF, and AREG. Specific probes for β-actin were used for normalization.
Compound 1 modulation of MAPK, WNT/β-catenin, and Hippo/YAP pathway genes was evaluated by real-time (RT)-qPCR. […], SW48, and Colo-205 cells were plated in 96-well plates at a density of 20,000 cells per well and were allowed to attach overnight. Compound 1 was added to cells at half log concentrations from 1 nM to 10 μM for durations of 2, 8, and 24 hours. Cells were harvested using the TaqMan Gene Expression Cells-to-CT Kit according to the product manual. Next, RT-PCR was performed and the resulting cDNA was used in qPCR reactions on the ViiA7 Real-Time PCR System (Thermo Fisher Scientific). TaqMan probes were used to monitor changes in DUSP4, DUSP6, SPRY2, MYC, CCND1, AXIN2, CTGF, Cyr61, AREG, and ACTB genes. All genes were normalized to ACTB expression and reported as percentage of DMSO-only control.

HCC cell lines = assay: HCC cell line apoptosis (Caspase 3/7-Glo); type: cell-based; conditions: 72 h
Method: Prior to testing, cells were grown and expanded in culture flasks to provide sufficient amounts of starting material. Cells were then diluted to the appropriate densities and added directly to the compound-spotted 384-well plates. Cells were allowed to grow for 72 h at 37° C./5% CO2. At the time when compound was added (to), initial cell number was assessed via a viability assay (Cell Titer-Glo) by quantifying the level of luminescence generated by ATP present in viable cells. After 72 h, cell viability of compound-treated cells was assessed via Cell Titer-Glo and luminescence measurement. The apoptotic response to Compound 1 was assessed by quantifying the activities of caspase 3 and caspase 7 (Caspase 3/7-Glo) in treated cells and DMSO control cells.
Proliferation and apoptosis were measured using CellTiter-Glo and Caspase 3/7-Glo. CalX2 values are the lowest concentration at which Compound 1 induces a 2-fold increase of cleaved caspase 3/7 compared to DMSO control. Proliferation and apoptosis data is the average of 3 experiments.

[3] = tested on: cell lines having β-catenin mutations; assay: Sensitivity of cell lines by mutation status (β-catenin, BRAF, RB, PI3K/PTEN); type: cell-based
Method: Evaluation of sensitivity in cell lines having beta-catenin mutations. The effect of Compound 1 on cell lines having β-catenin mutations was evaluated. (FIG. 205 and FIGS. 206A-206B).

## C[C@]1(C(N)=O)CC[C@@H](n2c(Nc3c(Cl)cc(Cl)cc3Cl)nc3cnc(N[C@@H]4CCOC[C@H]4F)nc32)CC1 [Compound 1, cis-4-[2-{[(3S,4R)-3-fluorooxan-4-yl]amino}-8-(2,4,6-trichloroanilino)-9H-purin-9-yl]-1-methylcyclohexane-1-carboxamide]
[1]; 0-95% RH
  hygroscopicity with respect to monohydrate: < 4.3%
[1]; DVS
  hygroscopicity (in words): slightly hygroscopic
[1]; from 5% RH to dry
  remaining water released: ~2.8 % wt
[1]; from 25 to 95% RH
  additional moisture sorption: ~1.7%
[1]; from 95 down to 5% RH
  loss of water content during desorption cycle: ~1.5%
pKa
  pKa: 5.14
LOX-IMVI xenograft; 10 and 15 mg/kg, orally, QD for 8 days
  tumor regression: Tumor regression was observed
LOX-IMVI xenograft; 15 and 30 mg/kg, both dose levels
  animals with tumor regression: 9 out of 9
LOX-IMVI xenograft; 15 and 30 mg/kg, each group
  animals tumor free at study end: 1 out of 9
LOX-IMVI xenograft; 15 and 30 mg/kg, p<0.001 for both dose levels
  tumor volume compared to the vehicle control: significant tumor volume reduction
LOX-IMVI xenograft; orally, QD for 8 days at 0.2, 1, 5, 10, and 15 mg/kg
  antitumor activity: Dose-dependent antitumor activity
[2]; Colo 205
  Axin2 RNA: increased Axin2 RNA
[2]; Colo 205, 2, 8 and 24 hr
  expression of Hippo/YAP target genes (CTGF, AREG): significantly reduced
[2]; Colo 205, 2, 8 or 24 h
  SPRY2 transcription: reduction of SPRY2 transcription in a concentration-dependent manner
HCC cell lines
  apoptosis in HCC lines: induces apoptosis
[3]
  efficacy against cell lines with mutated β-catenin: showed efficacy
